From US20100311726A1, “REDUCTION OF BETA-AMYLOID LEVELS BY TREATMENT WITH THE SMALL MOLECULE DIFFERENTIATION-INDUCING FACTOR” (priority 2007, published 2010)

Columns and labels:
CHO cells = assay: Cell proliferation assay (haemocytometer counts); format: cell-based, Chinese Hamster
Text: For proliferation assays, 1×10^4 cells were deposited into 24-well plates and treated with vehicle (ethanol or DMSO) or with various amounts of DIF-1 or DIF-3 for a period of 4 days. Cells were harvested after each day by trypsin/EDTA treatment, stained with an equal volume of 0.05% Trypan blue and enumerated in triplicate twice using a haemocytometer. Dead cells are stained blue, but live cells with intact cell membranes are not coloured. Data represents the mean cell number±the standard deviation for at least 3 separate experiments.
We therefore assessed the dose-dependent anti-proliferative effect of DIF-1 on normal (non-transformed) CHO cells (FIG. 1A). Briefly, CHO cells were seeded on a 6-well plate (10,000 cells/well) and were incubated with 25 μM DIF-1. Cells were harvested by the trypsin/EDTA treatment at the times indicated and counted with a haemocytometer. […] Therefore, for this study we only analyzed the effect of DIF-1 between 18 and 20 hours.

Aβ40 = assay: Secreted Aβ40 sandwich ELISA of conditioned media; format: cell-based, human
Method: (§1) The levels of secreted Aβ from CHO-7W cells stably overexpressing APP^751 and CHO-CAB cells that overexpress APP^751 and human BACE1 was quantified by ELISA and viewed by western blot using the monoclonal anti-APP antibody (6E10) that recognizes residues 1-17 of Aβ. Cells (5×10^5) were deposited into 6-well tissue culture dishes in triplicate and allowed to settle and grow for 24 hours. At this time, the media was aspirated and the cells were washed 2× in warm PBS. Fresh media (2 mL) and media supplemented with vehicle or DIF-1 was added to each well. […] Since DIF-1 exerts a cytostatic effect, the cell number was counted for all treatments upon removal of the conditioned media and used to normalize the levels of Aβ. […] The concentration of Aβ40 and Aβ42 was subsequently detected in triplicate using the β-Amyloid 1-40 or 1-42 Colorimetric ELISA kit (Biosource International, Inc.) according to the manufacturer's instructions.
(§2) We then looked at what effect this had on the levels of secreted soluble APP and Aβ production. […] The conditioned media was analyzed using anti-APP antibody 6E10 in order to detect total βP levels and sαAPP levels since it recognizes the amino acids 1-17 of Aβ and thus cannot detect sβAPP. […] The blots were analyzed using a phosphorimager. […]

Aβ42 = assay: Secreted Aβ42 sandwich ELISA of conditioned media; format: cell-based, human
Method: as §1, §2

human APLP1 = assay: APLP1 metabolism by western blot in CHO-A1 cells; format: cell-based; details: 30 μM DIF-1 or 250 nM DAPT, ~20 hours
Method: CHO cells that stably express human APLP1, which is a closely related family member of the APPs and known γ-secretase substrate (Eggert et al., 2004), were treated with 30 μM DIF-1, DAPT or DIF-1 plus DAPT (FIG. 7). Equal numbers of CHO-A1 cells stably expressing human APLP1 cells were plated in 6-well dishes and allowed to grow overnight. The next day, the media was removed and replaced with control media (2 ml) or media containing DAPT, DIF-1 or DAPT and DIF-1. […] After washing, blots were probed with HRP-conjugated secondary antibodies (1:5000) for 1 hour at room temperature.

human APLP2 = assay: APLP2 CTF levels in CHO cells expressing APLP2; format: cell-based; details: co-treatment of DIF-1 and DAPT
Text: To ascertain if DIF-1 indiscriminately perturbs the metabolism of type I transmembrane proteins we investigated the processing of other γ-secretase substrates.

[1] = test system: notch intracellular domain (NICD); assay: Notch intracellular domain (NICD) level; format: cell-based
secreted APP and Aβ = assay: Secreted APP and total Aβ in conditioned media by western blot; format: cell-based, human; details: CHO-7W, 30 μM, antibody 6E10
Method: as §1
We then looked at what effect this had on the levels of secreted soluble APP and Aβ production. […] The conditioned media was analyzed using anti-APP antibody 6E10 in order to detect total βP levels and sαAPP levels since it recognizes the amino acids 1-17 of Aβ and thus cannot detect sβAPP. […] The blots were analyzed using a phosphorimager.

[2] = neutral pH; cited from earlier work
APP ubiquitin-conjugates = APP ubiquitin-conjugates by immunoprecipitation and western blot; details: CHO-CAB
Method: For immunoprecipitations, 1 mg of total protein was diluted with extraction buffer and precleared with protein G-conjugated agarose beads (Pierce). The precleared samples were incubated overnight with anti-APP antibodies or nonimmune IgG (Jackson Laboratories). Immunocomplexes were captured with Protein G agarose beads, washed five times with extraction buffer and heated for 5 min at 95° C. in SDS gel-loading buffer.
CHO-CAB cell protein extracts (1 mg) were immunoprecipitated using APP antibodies. The immunoprecipitated complexes were analyzed by western blotting using anti-ubiquitin antibodies. […] Molecular Weight markers (kDa) are shown on the left. GAPDH levels are shown below each blot. The data represents that of three separate experiments.
To determine whether the proteasome-mediated degradation of APP is accompanied by increased levels of poly-ubiquitinated APP, we investigated the ubiquitination status of APP in extracts of CHO-CAB cells treated in the absence or presence of DIF-1 (30 μM), lactacystin (10 μM), ALLN (10 μM), DIF-1+lactacystin and DIF-1+ALLN.

[3] = conditioned media from either CHO-7W or CHO-CAB cells

**Q.** For `CCCCCC(=O)c1c(O)c(Cl)c(OC)c(Cl)c1O` [DIF-1, 1-[3,5-dichloro-2,6-dihydroxy-4-methoxyphenyl]-1-hexanone], which inhibition of growth (CHO cells; 25 μM, 24 hours) is on record?
**A.** Its inhibition of growth is “minor, yet insignificant inhibition of growth”.

**Q.** What about the “decrease in proliferation compared to control and vehicle treated cells” value (CHO cells; after 72 hours, all cell lines tested (e.g. CHO, N2a and SH-SY5Y)) of the same compound?
**A.** Its value is 70-75%.

**Q.** What about the “reversibility of antiproliferative effect” value (CHO cells; washing treated cells with PBS and fresh growth media) of the same compound?
**A.** The value was “readily reversed”.

**Q.** And the “reduction of secreted Aβ40” value (Aβ40; CHO-7W, 30 μM overnight)?
**A.** Its value is “about 48.5±0.91%”.

**Q.** What about the “reduction of secreted levels of Aβ40” value (Aβ40; [3]) of the same compound?
**A.** The value was 44.2±3.4%.

**Q.** What about the “reduction of secreted Aβ42” value (Aβ42; CHO-7W, 30 μM overnight) of the same compound?
**A.** Its value is 63.9±7.15%.

**Q.** What about the “reduction of secreted levels of Aβ42” value (Aβ42; [3]) of the same compound?
**A.** The value was 66.9±2.6%.

**Q.** And the “APLP1 maturation, protein levels, CTF levels” value (human APLP1)?
**A.** The value was “no effect on APLP1 maturation, protein levels or CTF production”.

**Q.** What about the “APLP2 CTF levels” value (human APLP2) of the same compound?
**A.** The value was “decrease in APLP2 CTF levels”.

**Q.** And the “effect on notch intracellular domain (NICD)” value [1]?
**A.** The value was “no effect”.

**Q.** And the “level of total Aβ in conditioned media by western blot” value (secreted APP and Aβ)?
**A.** The value was “reduced the level of total Aβ”.

**Q.** And the “level of total secreted APP in conditioned media” value (secreted APP and Aβ)?
**A.** Its value is “reduced the level of total secreted APP”.

**Q.** And the solubility [2]?
**A.** Its solubility is “soluble in both water and hexane”.

**Q.** And the “APP ubiquitin conjugates, treatment with both lactacystin and DIF-1” value (APP ubiquitin-conjugates)?
**A.** The value was “only slightly reduced”.

**Q.** And the “APP ubiquitin-conjugates, co-treatment with ALLN” value (APP ubiquitin-conjugates)?
**A.** Its value is “prevented the accumulation APP ubiqutin-conjugates”.

**Q.** And the “level of APP ubiquitin-conjugates (single agent)” value (APP ubiquitin-conjugates; DIF-1 30 μM, lactacystin 10 μM, ALLN 10 μM)?
**A.** Its value is “decreased levels of APP ubiquitin-conjugates”.
